# Experimental data published in BindingDB's records for PubMed 33822624 (Ocean University of China, 2021).
# pIC50: −log10 of the molar value.
# Target: TCF7L2 (Homo sapiens)
# Test: Inhibition of beta-catenin/Tcf4 (unknown origin) in human SW480 cells assessed as reduction in cyclin D1 level qRT-PCR analysis
structure (smiles),measurement,value
CC[C@H](C)[C@H](NC(=O)[C@H]1Cc2cn(nn2)CCCC[C@H](NC(=O)[C@H](CC(C)C)NC(=O)[C@H](CO)NC(=O)[C@H](CCCNC(=N)N)NC(=O)[C@H](CCC(=O)O)NC(=O)[C@H](CCCNC(=N)N)NC(=O)[C@H](Cc2cnc[nH]2)NC(=O)[C@H]2Cc3cn(nn3)CCCC[C@H](NC(=O)[C@H](CO)NC(=O)[C@H](CC(C)C)NC(C)=O)C(=O)N[C@@H](CCC(=O)O)C(=O)N[C@@H](CCC(N)=O)C(=O)N[C@@H](CC(C)C)C(=O)N2)C(=O)N[C@@H]([C@@H](C)O)C(=O)N[C@@H](CC(C)C)C(=O)N[C@@H](CCCNC(=N)N)C(=O)N1)C(=O)N[C@@H](CCC(N)=O)C(=O)N[C@@H](CCCNC(=N)N)C(=O)N[C@@H](CC(C)C)C(=O)N[C@@H](CC(C)C)C(=O)N[C@@H](Cc1ccccc1)C(N)=O,pIC50,5.38
